This is an account of results in US6337318B1, “Sustained GnRH peptide-release formulation” (Peptech, Ltd., priority 1996, dated 2002).

One series deals with prostate cancer in rats. The note with it: controlled dose over 30 days vs equivalent or double daily doses of free peptide; cited from earlier work.
Series [1] in a line: in vitro release of deslorelin from the rods. The note with it: rods of 94% stearin, 5% deslorelin (on an active basis), 1% lecithin. The class given is physicochemical. How it is done: Typically, the formulation of the first aspect will release the peptide agonist or analogue, in vitro, into phosphate buffered saline (PBS: pH 7.3, prepared by dissolving 8.00 g of sodium chloride, 1.00 g di-sodium hydrogen phosphate anhydrous, 0.40 g sodium dihydrogen phosphate dihydrate (0.31 g if anydrous), and 0.05 g sodium azide in 1 litre of deionised water), at 37° C. at a rate of about 2-350 μg/day for at least 200 days but preferably for at least 300 days.
Stearin (supplied as free flowing beads of 1 mm or less in diameter made by Vandenberg Foods) and lecithin (supplied as a deep brown viscous syrup from R P Schearer) were hand mixed using a spatula in a small beaker. The deslorelin was then added and thoroughly mixed into the excipients. The mixed material was transferred to the barrel of a ram extruder that has a 1 mm nozzle attached and is equilibrated to 55° C. The ram extrusion pressure is 40 psi. The ram was attached and pressure applied until the product began to extrude. At this point the pressure was backed off and the product allowed to reach 55° C. The product was then extruded-3 g over a 30 second period. The resulting extrudate was allowed to cool and then broken up and re-extruded through a 1 mm nozzle. This step was included to ensure uniformity of content throughout the matrix. The 1 mm nozzle was then replaced with a 2.3 mm diameter nozzle. […]

In the next series the test system is male dogs. Description: testicular size in male dogs implanted with rods. The note with it: implanted rods of 94% stearin, 5% deslorelin, 1% lecithin. The class given is in vivo, dog. How it is done:
(§1) Stearin (supplied as free flowing beads of 1 mm or less in diameter made by Vandenberg Foods) and lecithin (supplied as a deep brown viscous syrup from R P Schearer) were hand mixed using a spatula in a small beaker. The deslorelin was then added and thoroughly mixed into the excipients. The mixed material was transferred to the barrel of a ram extruder that has a 1 mm nozzle attached and is equilibrated to 55° C. The ram extrusion pressure is 40 psi. The ram was attached and pressure applied until the product began to extrude. At this point the pressure was backed off and the product allowed to reach 55° C. The product was then extruded-3 g over a 30 second period. The resulting extrudate was allowed to cool and then broken up and re-extruded through a 1 mm nozzle. This step was included to ensure uniformity of content throughout the matrix. The 1 mm nozzle was then replaced with a 2.3 mm diameter nozzle. The same product temperature equilibration procedure was conducted prior to extrusion. The product was then extruded and after cooling the long rods produced could be sectioned into lengths of the required weight.
(§2) The rods produced were implanted into male dogs using standard techniques.

Another series concerns plasma testosterone. Description: suppression of plasma testosterone levels in implanted dogs. The class given is in vivo, dog. As to conditions: 5% deslorelin; for duration of suppression of testosterone levels: rods of 93% stearin, 2% lecithin, 0.5, 1 or 2 x 120 mg rod containing 6 mg deslorelin. How it is done:
as §1, §2
Stearin beads (ADMUL PO 58 from Quest International Australasia Limited) and lecithin (Topcithin 300, Bronson & Jacobs, Australia) were hand mixed using a spatula in a small beaker. The deslorelin was then added and thoroughly mixed into the excipients. The material was transferred to the barrel of a ram extruder that has a 1 mm nozzle attached and is equilibrated to 55.8° C. The ram extrusion pressure is 40 psi. The ram was then attached and pressure applied until the product began to extrude. At this point the pressure was backed off and the product allowed to reach 55.8° C. The product was then extruded-3 g over a 30 second period. The resulting extrudate was allowed to cool and then broken up before re-extruding the mixed granulation through the 1 mm nozzle at 58.3° C. and into an injectable mould that generates a finished rod product that is 2.3 mm in diameter and approximately 25 mm long. […]

In a further series the test system is estradiol levels. As to conditions: female patients; provided peptide delivered so as to maintain a constant minimum blood level; cited from earlier work.
Series [2] relates to advanced prostatic cancer. The note with it: monthly subcutaneous injections, advanced prostatic cancer patients; cited from earlier work.

“5-oxo-L-prolyl-L-histidyl-L-tryptophyl-L-seryl-L-tyrosyl-D-tryptophyl-L-leucyl-L-arginyl-L-prolylglycinamide. [triptorelin]”: in the series with prostate cancer in rats, the “suppression of prostate tumour weight, microencapsulated form versus daily subcutaneous free peptide” value is reported as “more effective” and the “suppression of serum testosterone levels, microencapsulated form versus daily subcutaneous free peptide” value is “more effective”.

For `CCNC(=O)[C@@H]1CCCN1C(=O)[C@H](CCCN=C(N)N)NC(=O)[C@H](CC(C)C)NC(=O)[C@@H](Cc1c[nH]c2ccccc12)NC(=O)[C@H](Cc1ccc(O)cc1)NC(=O)[C@H](CO)NC(=O)[C@H](Cc1c[nH]c2ccccc12)NC(=O)[C@H](Cc1cnc[nH]1)NC(=O)[C@@H]1CCC(=O)N1` [deslorelin, [6-D-tryptophan-9-(N-ethyl-L prolinamide)-10-deglycinamide]], the “duration of release of deslorelin from the rods in vitro” value in series [1] is reported as “up to 250 days”. Further, in the series with male dogs, the “duration of continued decline in testicular size” value is “at least 5 months”. The “duration of suppression of testosterone levels” value is on record as “at least 5 months” in the series on plasma testosterone (bitches) and no less than 12 months in the series with plasma testosterone (dogs (male)). Moreover, the “duration of suppression of plasma testosterone levels” value in the series on plasma testosterone (male dogs, implanted rods of 94% stearin, 1% lecithin) was “at least 4 months”. The “suppression of estradiol levels” value in the series on estradiol levels is given as “effective”.

Turning to `CC(C)C[C@H](NC(=O)[C@@H](COC(C)(C)C)NC(=O)[C@H](Cc1ccc(O)cc1)NC(=O)[C@H](CO)NC(=O)[C@H](Cc1c[nH]c2ccccc12)NC(=O)[C@H](Cc1cnc[nH]1)NC(=O)[C@@H]1CCC(=O)N1)C(=O)N[C@@H](CCCNC(=N)N)C(=O)N1CCC[C@H]1C(=O)NNC(N)=O` [goserelin, 3-[5 oxo-L-prolyl-L-tryptophyl-L-seryl-L-tyrosyl-(3-O-tert-butyl)-D-seryl-L-leucyl-L-arginyl-L-prolyl] cabazamide acetate.], in series [2], the “efficacy compared with orchiectomy” value is listed as “as effective as orchiectomy” and the tolerability result is on record as “well tolerated”.
